From patent publication US10196365B2, “Quinazoline derivative, preparation method therefor, and pharmaceutical composition and application thereof” (ARROMAX PHARMATECH CO., LTD., priority 2014, dated 2019)
Marks after values point to notes of the source that are not given here.

How the values were obtained:
[1] = tested on: HCC 827 (human non-small cell lung cancer cell line); assay: Growth inhibition test in tumor cells (CCK8), HCC827; assay type: cell-based; details: HCC 827 cells, 72 h
Experimental: (§1) i) Logarithmic growth phase cells were collected and counted, the cells were suspended again with complete medium, the cell concentration was adjusted to an appropriate concentration (determined according to the results of cell density optimization test), inoculated to 96 plates, each of which with 100 mL cells suspension.

EGFR tyrosine kinase = EGFR tyrosine kinase (Homo sapiens (Human), UniProt P00533); assay: HTRF kinEASE TK in vitro kinase assay, EGFR; assay type: biochemical; details: 30 min enzyme reaction, read-out: IC50 against EGFR
EGFR tyrosine kinase, sequence (P00533 25-1210): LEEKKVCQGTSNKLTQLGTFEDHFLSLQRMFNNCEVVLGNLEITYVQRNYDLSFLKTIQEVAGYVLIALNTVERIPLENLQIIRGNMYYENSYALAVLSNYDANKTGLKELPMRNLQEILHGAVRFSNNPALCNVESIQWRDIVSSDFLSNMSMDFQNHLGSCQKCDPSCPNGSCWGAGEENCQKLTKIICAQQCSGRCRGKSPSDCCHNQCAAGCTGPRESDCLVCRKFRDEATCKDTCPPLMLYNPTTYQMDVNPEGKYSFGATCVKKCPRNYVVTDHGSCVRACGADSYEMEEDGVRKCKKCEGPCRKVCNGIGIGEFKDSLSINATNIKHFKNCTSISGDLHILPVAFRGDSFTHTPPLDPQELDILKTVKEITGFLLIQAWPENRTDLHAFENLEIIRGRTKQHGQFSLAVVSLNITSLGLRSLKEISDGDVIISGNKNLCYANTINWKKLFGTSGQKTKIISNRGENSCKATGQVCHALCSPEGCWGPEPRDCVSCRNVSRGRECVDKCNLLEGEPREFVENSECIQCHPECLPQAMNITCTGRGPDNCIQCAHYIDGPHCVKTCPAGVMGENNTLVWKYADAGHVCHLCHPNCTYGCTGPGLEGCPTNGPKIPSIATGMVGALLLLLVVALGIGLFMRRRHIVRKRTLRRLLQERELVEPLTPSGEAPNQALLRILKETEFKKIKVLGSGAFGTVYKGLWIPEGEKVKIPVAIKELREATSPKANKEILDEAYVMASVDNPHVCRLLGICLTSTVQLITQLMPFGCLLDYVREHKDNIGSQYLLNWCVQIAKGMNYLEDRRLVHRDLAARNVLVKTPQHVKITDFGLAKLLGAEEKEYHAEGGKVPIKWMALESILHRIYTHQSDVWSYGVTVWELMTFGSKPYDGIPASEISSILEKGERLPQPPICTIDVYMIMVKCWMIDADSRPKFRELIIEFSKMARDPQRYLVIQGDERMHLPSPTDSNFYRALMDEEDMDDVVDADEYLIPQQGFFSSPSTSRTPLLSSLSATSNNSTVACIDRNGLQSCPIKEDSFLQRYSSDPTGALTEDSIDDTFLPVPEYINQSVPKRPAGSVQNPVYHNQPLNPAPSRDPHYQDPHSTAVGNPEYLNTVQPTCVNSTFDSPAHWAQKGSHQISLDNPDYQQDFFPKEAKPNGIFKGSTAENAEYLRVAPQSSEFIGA
Experimental: (§2) The kinase analysis in vitro was performed using the HTRF kinEASE TK kit of Invitrogen Co., the procedure steps were carried out according to instructions of kit, the method then was used to detect the inhibitory effects of test compounds on substrate peptide phosphorylation of the EGFR receptor tyrosine kinase and Her-2 activity enzyme in vitro. Specific steps are as follows:
(§3) b) 2 microliters of the previously prepared TK-biotin substrate solution of EGFR and Her-2 enzyme corresponding to the substrate concentration were added to all the reaction holes.
(§4) The holes were sealed with sealing film for microplate, mixed and incubated at room temperature for 10 min to allow the compounds and enzymes fully combine.
(§5) d) 2 microliters of ATP solutions with concentration corresponding to EGFR and Her-2 enzyme were added to all the reaction holes to start the kinase reaction, the enzyme reaction time of EGFR and HER2 are 30 min.
(§6) e) The EGFR and Her-25 detection solution were prepared 5 min before the end of the kinase reaction. Streptavidin-XL665 and TK europium cryptate (1:100) detection solution corresponding to the two enzymes were prepared respectively by using detection buffer in the kit.
(§7) f) 5 microliters of diluted Streptavidin-XL665 were added to all the reaction holes after the kinase reaction was over, diluted TK antibody europium cryptate detection solutions were then added immediately after fully mixed.

[2] = tested on: A549 (human lung cancer cell lines); assay: Growth inhibition test in tumor cells (CCK8), A549; assay type: cell-based; details: 72 h
Experimental: as §1

Her-2 enzyme = Her-2 enzyme (Homo sapiens (Human), UniProt P04626); assay: HTRF kinEASE TK in vitro kinase assay, Her-2; assay type: biochemical; details: 30 min enzyme reaction, read-out: IC50 against Her-2
Her-2 enzyme, sequence (P04626 23-1255): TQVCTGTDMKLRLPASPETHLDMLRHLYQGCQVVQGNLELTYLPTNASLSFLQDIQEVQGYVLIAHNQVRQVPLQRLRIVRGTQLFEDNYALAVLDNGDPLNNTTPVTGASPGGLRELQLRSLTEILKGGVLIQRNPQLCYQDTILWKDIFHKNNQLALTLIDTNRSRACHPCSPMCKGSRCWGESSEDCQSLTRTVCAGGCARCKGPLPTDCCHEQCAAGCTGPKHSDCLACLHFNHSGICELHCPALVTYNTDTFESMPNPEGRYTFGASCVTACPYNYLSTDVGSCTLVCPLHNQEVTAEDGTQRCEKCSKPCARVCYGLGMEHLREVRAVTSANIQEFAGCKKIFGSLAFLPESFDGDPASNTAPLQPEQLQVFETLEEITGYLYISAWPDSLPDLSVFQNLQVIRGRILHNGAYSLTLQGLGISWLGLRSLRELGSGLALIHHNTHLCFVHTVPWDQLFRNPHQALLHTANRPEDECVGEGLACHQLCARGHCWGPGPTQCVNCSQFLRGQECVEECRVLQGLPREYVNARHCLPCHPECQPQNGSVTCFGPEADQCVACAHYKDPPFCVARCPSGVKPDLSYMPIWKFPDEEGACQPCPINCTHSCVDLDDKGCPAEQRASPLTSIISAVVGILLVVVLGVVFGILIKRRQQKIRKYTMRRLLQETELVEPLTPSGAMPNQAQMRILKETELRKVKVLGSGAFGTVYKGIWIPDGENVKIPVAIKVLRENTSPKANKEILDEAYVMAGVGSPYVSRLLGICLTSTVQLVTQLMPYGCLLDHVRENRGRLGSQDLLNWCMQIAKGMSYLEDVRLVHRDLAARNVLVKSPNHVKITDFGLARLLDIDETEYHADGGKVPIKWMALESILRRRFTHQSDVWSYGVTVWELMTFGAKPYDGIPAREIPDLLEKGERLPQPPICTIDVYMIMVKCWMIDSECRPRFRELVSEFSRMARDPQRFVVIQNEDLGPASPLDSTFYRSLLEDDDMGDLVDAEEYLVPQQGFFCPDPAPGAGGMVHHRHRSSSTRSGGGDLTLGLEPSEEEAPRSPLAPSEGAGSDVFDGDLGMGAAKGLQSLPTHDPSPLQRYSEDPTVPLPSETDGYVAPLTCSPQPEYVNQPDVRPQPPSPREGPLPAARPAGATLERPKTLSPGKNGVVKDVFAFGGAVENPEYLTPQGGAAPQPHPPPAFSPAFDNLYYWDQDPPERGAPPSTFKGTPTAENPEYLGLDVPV
Experimental: as §2, §3, §4, §5, §6, §7

[3] = tested on: MDA-MB-453 (human breast cancer cell lines); assay: Growth inhibition test in tumor cells (CCK8), MDA-MB-453; assay type: cell-based; details: MDA-MB-453 cells, 72 h
Experimental: Growth Inhibition Tests of a Series of Compounds in Different Tumor Cells
i. Cell lines: A431 (human epithelial carcinoma cell lines), A549 (human lung cancer cell lines), NCI H1975 (human non-small cell lung cancer cell lines (HCC), HCC 827 (human non-small cell lung cancer cell line), MDA-MB-453 (human breast cancer cell lines)
MDA-MB-453 cell line: 90% L15+10% FBS; trypsin (a 0.25% (W/V) solution was prepared with […], 0.53 mM EDTA was added);
i) Logarithmic growth phase cells were collected and counted, the cells were suspended again with complete medium,
ii) The cell concentration was adjusted to an appropriate concentration, inoculated to 96 holes, each of which with 100 μL cells suspension.
iii) The cells were incubated in a 37° C., 100% relative humidity and 5% CO2 incubator, for 24 h.
i) Logarithmic growth phase cells were collected and counted, the cells were suspended again with complete medium, the cell concentration was adjusted to an appropriate concentration (determined according to the results of cell density optimization test), inoculated to 96 plates, each of which with […] cells suspension. The cells were incubated in a 37° C., 100% relative humidity and 5% CO2 incubator for 24 h.
ii) The test compounds were diluted to the corresponding concentration stated by culture medium, and the cells were inoculated as 25 μL/hole. The final concentration of the compound was from 10 μM to 0 μM, with a gradient of 4 times, and 10 concentration points totally.
iii) The cells were incubated in a 37° C., 100% relative humidity, 5% CO2 incubator for 72 h.
iv) Absorbing the culture medium, the complete medium containing 10% CCK-8 was added and incubated in the incubator of 37° C. for 2-4 h.
v) After a slight shake, the absorbance at 450 nm was measured by SpectraMax M5 Microplate Reader, taking the absorbance at 650 nm as a reference, the inhibition rate was calculated.
The IC50 curve fitting was performed by using the software Graphpad Prism 5 and the calculation formula log (inhibitor) vs. response to calculate the IC50 value.

[4] = tested on: A431 (human epithelial carcinoma cell lines); assay: Growth inhibition test in tumor cells (CCK8), A431; assay type: cell-based; details: A-431, 72 h
Experimental: as §1

[5] = tested on: NCI-H1975 nude mice transplanted tumor; assay: In vivo pharmacodynamics evaluation, NCI-H1975 nude mice transplanted tumor; set-up: species or system BALB/c nude mice; details: gavage
Experimental: BALB/c nude mice, female, 6 to 7 weeks of age, weight 20 g±2 g, purchased from Shanghai silaike experimental animal Co. Ltd., SPF environment.
The logarithmic growth phase NCI-H1975 cells cultured in vitro were digested with trypsin, washed with PBS for three times, the cell survival rate was detected by trypan blue exclusion to be >90%, the cell concentration was adjusted to 1×10^7/mL with PBS, which was implanted subcutaneously in back forelimb of the nude mice with 0.2 mL/pcs under aseptic condition. After tumor formation, the tumor were cultured for two passages in vivo, the tumor were stripped out to sterile culture plate when growing to the volume of 300 to 500 mm^3, a small amount of PBS was added, the tumor tissue with vigorous growth were cut into about 1.5 mm^3 tumor blocks, inoculated in right armpit of the nude mice. The diameter of tumor was measured with vernier caliper, when the tumor grew to 100 to 200 mm^3, then the animal were randomly grouping, […], gavage administration, once a day or every other day, continuously administrated for 14 days (d14) and observed for 7 days (d22), the negative control group was administrated with the same amount of solvent (saline solution of 1% DMSO), during the period of administration and recovery, the body weight and tumor size of the nude mice were measured weekly 2 to 3 times. The tumor volume and relative tumor volume were calculated according to the measured data, and the calculation formula of the tumor volume (TV) was TV=1/2×a×b^2, of which a and b represent the tumor length and diameter respectively. The relative tumor volume (RTV) was calculated according to the measured results, and the calculation formula was: RTV=Vt/V0, wherein V0 represents the tumor volume at the beginning of the experiment, Vt represents the volume of the tumor each measured.

[6] = tested on: NCI H1975 (human non-small cell lung cancer cell lines); assay: Growth inhibition test in tumor cells (CCK8), NCI-H1975; assay type: cell-based; details: 72 h
Experimental: as §1

| Structure (SMILES) | IC50 [1] | IC50 (EGFR tyrosine kinase) | IC50 [2] | IC50 (Her-2 enzyme) | IC50 [3] | IC50 [4] | Inhibition rate (%) d22 ([5]; 5 mg/kg (low dosage), qod) | RTV d22 ([5]; 5 mg/kg, qod) | T/C (%) d22 ([5]; 5 mg/kg, qod) | Inhibition rate (%) d22 ([5]; 20 mg/kg (middle dosage), qod) | RTV d22 ([5]; 20 mg/kg, qod) | T/C (%) d22 ([5]; 20 mg/kg, qod) | Inhibition rate (%) d22 ([5]; 80 mg/kg (high dosage), qod) | RTV d22 ([5]; 80 mg/kg, qod) | T/C (%) d22 ([5]; 80 mg/kg, qod) | IC50 [6] | Inhibition rate (%) d22 ([5]; 5 mg/kg, qd) | RTV d22 ([5]; 5 mg/kg, qd) | T/C (%) d22 ([5]; 5 mg/kg, qd) |
| --- | --- | --- | --- | --- | --- | --- | --- | --- | --- | --- | --- | --- | --- | --- | --- | --- | --- | --- | --- |
| COCCCOc1cc2ncnc(Nc3ccc(F)c(Cl)c3)c2cc1NC(=O)/C=C/CN(C)C [Embodiment 1, (E)-N-(4-(3-chloro-4-fluorophenylamino)-7-(3-methoxypropoxy)quinazolin-6-yl)-4-(dimethylamino)but-2-enamide] | 0.293 nM | 0.765 nM | 6080 nM | 39.3 nM | – | – | – | – | – | – | – | – | – | – | – | – | – | – | – |
| CCOCCOc1cc2ncnc(Nc3ccc(F)c(Cl)c3)c2cc1NC(=O)/C=C/CN(C)C [Embodiment 4, (E)-N-(4-(3-chloro-4-fluorophenylamino)-7-(2-ethoxyethoxy)quinazolin-6-yl)-4-(dimethylamino)but-2-enamide] | 0.312 nM | 0.699 nM | 7520 nM | 42.1 nM | 0.62 nM | 1.53 nM | 73.2** % | 2.00 ± 0.29 | 26.91% | 82.0** % | 1.39 ± 0.40 | 18.71% | 95.1*** % | 0.43 ± 0.05 | 5.75% | – | – | – | – |
| CCCOCCOc1cc2ncnc(Nc3ccc(F)c(Cl)c3)c2cc1NC(=O)/C=C/CN(C)C [Embodiment 5, (E)-N-(4-(3-chloro-4-fluorophenylamino)-7-(2-propoxyethoxy)quinazolin-6-yl)-4-(dimethylamino)but-2-enamide] | 0.555 nM | 2.85 nM | 3140 nM | 132 nM | – | 8.15 nM | – | – | – | – | – | – | – | – | – | – | – | – | – |
| CC(C)OCCOc1cc2ncnc(Nc3ccc(F)c(Cl)c3)c2cc1NC(=O)/C=C/CN(C)C [Embodiment 6, (E)-N-(4-(3-chloro-4-fluorophenylamino)-7-(2-isopropoxyethoxy)quinazolin-6-yl)-4-(dimethylamino)but-2-enamide] | 0.55 nM | 1.54 nM | 1840 nM | 83.8 nM | – | 5.87 nM | – | – | – | – | – | – | – | – | – | – | – | – | – |
| C#Cc1cccc(Nc2ncnc3cc(OCCOCC)c(NC(=O)/C=C/CN(C)C)cc23)c1 [Embodiment 10, (E)-N-(7-(2-ethoxyethoxy)-4-(3-ethynylphenylamino)quinazolin-6-yl)-4-(dimethylamino)but-2-enamide] | 0.587 nM | 0.771 nM | 1440 nM | 3.63 nM | 1.43 nM | 6.01 nM | – | – | – | – | – | – | – | – | – | 45.5 nM | – | – | – |
| CCOCCOc1cc2ncnc(Nc3ccc(OCc4cccc(F)c4)c(Cl)c3)c2cc1NC(=O)/C=C/CN(C)C [Embodiment 11, (E)-N-(4-(4-(3-fluorobenzyloxy)3-chlorophenylamino)-7-(2-ethoxyethoxy)quinazolin-6-yl)-4-(dimethylamino)but-2-enamide] | – | – | 2930 nM | 262 nM | – | 79.5 nM | – | – | – | – | – | – | – | – | – | 49.7 nM | – | – | – |
| CCOCCOc1cc2ncnc(Nc3ccc(OCc4ccccn4)c(Cl)c3)c2cc1NC(=O)/C=C/CN(C)C [Embodiment 12, (E)-N-(4-(3-chloro-4-(pyridin-2-ylmethoxy)phenylamino)-7-(2-ethoxyethoxy)quinazolin-6-yl)-4-(dimethylamino)but-2-enamide] | – | 10.2 nM | – | 53.9 nM | – | – | – | – | – | 78.7** % | 1.59 ± 0.33 | 21.41% | 90.5*** % | 0.70 ± 0.09 | 9.34% | – | 66.1** % | 2.47 ± 0.68 | 33.21% |
